Assay results reported in patent US20100303932A1 (priority 2009, published 2010).
Several values for one entry are separate records, joined by “and”; a condition that tells them apart may be missing. Equal values may be shown once.

Legend:
[1] = test system: EDL nerve muscle preparations; parameters: species or system mouse
[2] = test system: mice injected with BoNT/A; conditions: mouse, in vivo
motor nerve terminals = test system: motor nerve terminals; parameters: species or system mouse
Neuro 2a cells [3] = type: cell-based, mouse
[4] = mouse, in vivo
[5] = test system: mice injected with BoNT/A; conditions: mouse, in vivo; remark: listed apart in the source
[6] = test system: mice injected with BoNT/A; conditions: mouse, in vivo; remark: listed apart in the source
Neuro 2a cells [7] = type: cell-based, mouse; remark: listed apart in the source
[8] = test system: EDL nerve muscle preparations
TRPV1 = test system: TRPV1; parameters: species or system mouse
[9] = test system: mice injected with BoNT/A; conditions: mouse, in vivo; remark: listed apart in the source
[10] = test system: mice injected with BoNT/A

Oc1cc2c(cc1O)CN(C(=S)NCCc1ccc(Cl)cc1)CCC2 [capsazepine]
EPC amplitude or time course [1]: no effect
amplitude of endplate currents (EPCs) [1]: equivalent to that observed after BoNT/A alone
inhibitory effect of BoNT/A on mean EPC amplitude [1]: the protective action of capsaicin was abolished
toe spread 24 hours post-capsaicin [2]: unable to spread toes

COc1cc(CNC(=O)CCCC/C=C/C(C)C)ccc1O [capsaicin, trans 8-methyl-N-vanillyl-6-noneamide]
exocytosis-induced uptake of BoNT/A into motor nerve terminals (motor nerve terminals): prevented
reduction of BoNT/A uptake into motor nerve terminals by capsaicin (motor nerve terminals): prevented by removal of extracellular Ca^2+
FM1-43 labeling (Neuro 2a cells [3]): equivalent to control
protective effect of capsaicin on FM1-43 uptake (Neuro 2a cells [3]): did not occur
Body Weight (gram) ± SEM [4]: 32.62 ± 0.56 gram and 33.55 ± 0.51 gram and 38.39 ± 0.93 gram
loss of body mass after BoNT/A [4]: reduced the loss of body mass
recovery of body weight following BoNT/A [4]: significantly enhanced recovery of body weight
amplitude of endplate currents (EPCs) [1]: reduced this action of BoNT/A
endplate potentials (EPPs) in response to 70 Hz nerve stimulation [1]: did not fail
inhibitory effect of BoNT/A on mean EPC amplitude [1]: reduced the inhibitory effect of BoNT/A
Muscle Strength (%) ± SEM [5]: 100%
motor strength [5]: retained normal motor strength
cessation of grooming behavior after BoNT/A [6]: reduced
BoNT/A uptake into Neuro 2a cells (Neuro 2a cells [7]): reduced
reduction of BoNT/A uptake into Neuro 2a cells by capsaicin (Neuro 2a cells [7]): prevented by removal of extracellular Ca^2+
force generation or amplitude of stimulus evoked endplate currents (EPC) [8]: no effect
mean nerve-evoked twitch tension ([8]; n=4): 500 ± 100 mg
Toe spread reflex (TSR) [2]: remained completely normal
Toe spread reflex (TSR) at times later than 24 hours after BoNT/A [2]: continued unaltered
Toe spread reflex (TSR) within 24 hours [2]: remained normal
expression of TRPV1 (TRPV1): did not affect
walk time on rotating rod [9]: remained equivalent to non-treated controls
CMAP amplitude compared to BoNT/A alone treated mice ([10]; mouse, in vivo): significantly greater
fold recovery of CMAP from week 1 to week 7 ([10]; mouse, in vivo): approximately 18 fold
muscle strength, body weight, CMAP amplitude and performance on the rotor rod ([10]; mouse, in vivo): normal
CMAP amplitude ([10]; n=4): 4.6±0.92 mV and 6.7±1.24 mV and 7.6±1.12 mV
